From PubChem BioAssay (NCI)
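Cells were grown in 96-well plates and exposed to each compound for 48 hours at five concentrations; endpoints were interpolated linearly between bracketing concentrations, or set to the highest concentration if not reached. Abbreviation: GI50, concentration required for 50% inhibition of growth. The concentration for full growth arrest is given as TGI.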

Experiments:
Test in all cases: DTP human tumour cell line panel, 48 h
786-0 renal = test system: 786-0 renal
A498 renal = test system: A498 renal
A549 NSCLC = test system: A549 NSCLC
ACHN renal = test system: ACHN renal
BT-549 breast = test system: BT-549 breast
CAKI-1 renal = test system: CAKI-1 renal
CCRF-CEM leukemia = test system: CCRF-CEM leukemia
COLO 205 colon = test system: COLO 205 colon
DU-145 prostate = test system: DU-145 prostate
EKVX NSCLC = test system: EKVX NSCLC
HCC-2998 colon = test system: HCC-2998 colon
HCT-116 colon = test system: HCT-116 colon
HCT-15 colon = test system: HCT-15 colon
HL-60(TB) leukemia = test system: HL-60(TB) leukemia
HOP-62 NSCLC = test system: HOP-62 NSCLC
HOP-92 NSCLC = test system: HOP-92 NSCLC
HS 578T breast = test system: HS 578T breast
HT29 colon = test system: HT29 colon
IGROV1 ovarian = test system: IGROV1 ovarian
K-562 leukemia = test system: K-562 leukemia
KM12 colon = test system: KM12 colon
LOX IMVI melanoma = test system: LOX IMVI melanoma
M14 melanoma = test system: M14 melanoma
MALME-3M melanoma = test system: MALME-3M melanoma
MCF7 breast = test system: MCF7 breast
MDA-MB-231 breast = test system: MDA-MB-231 breast
MDA-MB-435 = test system: MDA-MB-435
MOLT-4 leukemia = test system: MOLT-4 leukemia
NCI-H226 lung = test system: NCI-H226 lung
NCI-H23 lung = test system: NCI-H23 lung
NCI-H460 lung = test system: NCI-H460 lung
NCI-H522 lung = test system: NCI-H522 lung
NCI/ADR-RES ovarian = test system: NCI/ADR-RES ovarian
OVCAR-3 ovarian = test system: OVCAR-3 ovarian
OVCAR-4 ovarian = test system: OVCAR-4 ovarian
OVCAR-5 ovarian = test system: OVCAR-5 ovarian
OVCAR-8 ovarian = test system: OVCAR-8 ovarian
PC-3 prostate = test system: PC-3 prostate
RPMI-8226 leukemia = test system: RPMI-8226 leukemia
RXF 393 renal = test system: RXF 393 renal
SF-268 CNS = test system: SF-268 CNS
SF-295 CNS = test system: SF-295 CNS
SF-539 CNS = test system: SF-539 CNS
SK-MEL-2 melanoma = test system: SK-MEL-2 melanoma
SK-MEL-28 melanoma = test system: SK-MEL-28 melanoma
SK-MEL-5 melanoma = test system: SK-MEL-5 melanoma
SK-OV-3 ovarian = test system: SK-OV-3 ovarian
SN12C renal = test system: SN12C renal
SNB-19 CNS = test system: SNB-19 CNS
SNB-75 CNS = test system: SNB-75 CNS
SR leukemia = test system: SR leukemia
SW-620 colon = test system: SW-620 colon
T-47D breast = test system: T-47D breast
TK-10 renal = test system: TK-10 renal
U251 CNS = test system: U251 CNS
UACC-257 melanoma = test system: UACC-257 melanoma
UACC-62 melanoma = test system: UACC-62 melanoma
UO-31 renal = test system: UO-31 renal

## N=C1C=C(N)C(=O)c2ccccc21
786-0 renal
  GI50: 202 nM
  TGI: 406 nM
A498 renal
  GI50: 1570 nM
  TGI: 2950 nM
A549 NSCLC
  GI50: 1040 nM
  TGI: 2700 nM
ACHN renal
  GI50: 182 nM
  TGI: 369 nM
BT-549 breast
  GI50: 452 nM
  TGI: 929 nM
CAKI-1 renal
  GI50: 187 nM
  TGI: 379 nM
CCRF-CEM leukemia
  GI50: 308 nM
  TGI: > 100000 nM
COLO 205 colon
  GI50: 267 nM
  TGI: 664 nM
DU-145 prostate
  GI50: 191 nM
  TGI: 345 nM
EKVX NSCLC
  GI50: 202 nM
  TGI: 421 nM
HCC-2998 colon
  GI50: 1390 nM
  TGI: 2760 nM
HCT-116 colon
  GI50: 183 nM
  TGI: 451 nM
HCT-15 colon
  GI50: 225 nM
  TGI: 578 nM
HL-60(TB) leukemia
  GI50: 207 nM
  TGI: 606 nM
HOP-62 NSCLC
  GI50: 204 nM
  TGI: 435 nM
HOP-92 NSCLC
  GI50: 207 nM
  TGI: 496 nM
HS 578T breast
  GI50: 353 nM
HT29 colon
  GI50: 386 nM
  TGI: 1820 nM
IGROV1 ovarian
  GI50: 203 nM
  TGI: 420 nM
K-562 leukemia
  GI50: 231 nM
  TGI: 556 nM
KM12 colon
  GI50: 322 nM
  TGI: 1260 nM
LOX IMVI melanoma
  GI50: 170 nM
  TGI: 421 nM
M14 melanoma
  GI50: 209 nM
  TGI: 422 nM
MALME-3M melanoma
  GI50: 173 nM
  TGI: 321 nM
MCF7 breast
  GI50: 188 nM
  TGI: 391 nM
MDA-MB-231 breast
  GI50: 180 nM
  TGI: 554 nM
MDA-MB-435
  GI50: 163 nM
  TGI: 310 nM
MOLT-4 leukemia
  GI50: 215 nM
  TGI: 558 nM
NCI-H226 lung
  GI50: 190 nM
  TGI: 394 nM
NCI-H23 lung
  GI50: 219 nM
  TGI: 610 nM
NCI-H460 lung
  GI50: 1810 nM
  TGI: 4010 nM
NCI-H522 lung
  GI50: 170 nM
  TGI: 342 nM
NCI/ADR-RES ovarian
  GI50: 296 nM
  TGI: 1010 nM
OVCAR-3 ovarian
  GI50: 139 nM
  TGI: 281 nM
OVCAR-4 ovarian
  GI50: 103 nM
  TGI: 243 nM
OVCAR-5 ovarian
  GI50: 184 nM
  TGI: 373 nM
OVCAR-8 ovarian
  GI50: 248 nM
  TGI: 661 nM
PC-3 prostate
  GI50: 281 nM
  TGI: 1340 nM
RPMI-8226 leukemia
  GI50: 241 nM
  TGI: 669 nM
RXF 393 renal
  GI50: 182 nM
  TGI: 337 nM
SF-268 CNS
  GI50: 199 nM
  TGI: 451 nM
SF-295 CNS
  GI50: 639 nM
  TGI: 1530 nM
SF-539 CNS
  GI50: 181 nM
  TGI: 347 nM
SK-MEL-2 melanoma
  GI50: 189 nM
  TGI: 373 nM
SK-MEL-28 melanoma
  GI50: 496 nM
  TGI: 1640 nM
SK-MEL-5 melanoma
  GI50: 174 nM
  TGI: 319 nM
SK-OV-3 ovarian
  GI50: 1510 nM
  TGI: 2860 nM
SN12C renal
  GI50: 188 nM
  TGI: 376 nM
SNB-19 CNS
  GI50: 598 nM
  TGI: 1970 nM
SNB-75 CNS
  GI50: 151 nM
  TGI: 293 nM
SR leukemia
  GI50: 256 nM
  TGI: 667 nM
SW-620 colon
  GI50: 220 nM
  TGI: 509 nM
T-47D breast
  GI50: 261 nM
  TGI: 671 nM
TK-10 renal
  GI50: 599 nM
  TGI: 1700 nM
U251 CNS
  GI50: 183 nM
  TGI: 339 nM
UACC-257 melanoma
  GI50: 161 nM
  TGI: 306 nM
UACC-62 melanoma
  GI50: 181 nM
  TGI: 352 nM
UO-31 renal
  GI50: 153 nM
  TGI: 320 nM
